# Measured values taken from patent publication US20040138188A1, “Use of TGF-beta inhibitors to counteract pathologic changes in the level or function of steroid/thyroid receptors” (priority 2002, published 2004).
# Assays:
# Type in all cases: cell-based
# [1] = test system: steroid/thyroid receptors; test: cDNA microarray, TGFβ1-induced down-regulation of steroid/thyroid receptors in human lung fibroblasts; conditions: 5 ng/ml TGFβ1
# Procedure: Human lung fibroblasts (Cambrex Bio Science) from a person were seeded at 4×10^5 cells (passage 4) in 100 mm dishes and cultured in complete FGM medium (Cambrex Bio Science). The next day, medium was changed to FGM without serum or fibroblast growth factor, but supplemented with 0.2% bovine serum albumin and 50 μg/m; Vitamin C. Cells were serum deprived for 24 hours prior to treating with 5 ng/ml TGFβ1 (R&D Systems) in the presence or absence of 400 nM Compound No. 79. Induction with TGFβ was carried out for various times (7.5 hours, 24 hours, and 3 days) after which RNA was harvested by lysing the cells in RLT buffer (Qiagen) and frozen at −80° C.
# (§1) Gene expression profiles were determined from cDNA microarrays containing approximately 9000 elements derived from clones isolated from normalized cDNA libraries or purchased from ResGen (Invitrogen Life Technologies, Carlsbad, Calif.). […]
# (§2) Total RNA was extracted from cells using Qiagen's RNeasy kit. […] Hybridization of each fluorophore was quantified using an Axon GenePix 4000A scanner.
# Differential expression values were expressed as the ratio of the median of background-subtracted fluorescent intensity of the experimental RNA to the median of background-subtracted fluorescent intensity of the control RNA. For ratios greater than or equal to 1.0, the ratio was expressed as a positive value. […]
# [2] = test system: glucocorticoid receptor; test: cDNA microarray, TGFβ1-induced down-regulation of glucocorticoid receptor in rat lung fibroblasts (RLF); conditions: 15 ng/ml TGFβ1, 24 hours
# Procedure: Rat lung fibroblasts (RLF) were isolated from perfused rat lung by physical and enzymatic dissociation of lung tissue. […] RLFs were cultured in FGM-2 with 2% FBS (Clonetics # CC-3132). Cells were serum starved for 24 hours, followed by the treatment with 15 ng/ml TGFβ1 (R&D System) or co-treatment with 1 μM Compound No. 81 or 0.1 μM Compound No. 74 for 24 hours.
# as §1, §2
# (§3) Differential expression values were expressed as the ratio of the median of background-subtracted fluorescent intensity of the experimental RNA to the median of background-subtracted fluorescent intensity of the control RNA. For ratios greater than or equal to 1.0, the ratio was expressed as a positive value. For ratios less than 1.0, the ratio was expressed as the negative reciprocal (i.e., a ratio of 0.5=−2.0). […] Differential expression ratios were determined as the mean of the two values from dye-swapped duplicates. […]
# [3] = test system: glucocorticoid receptor; test: cDNA microarray, TGFβ1-induced down-regulation of glucocorticoid receptor in normal rat kidney cells (NRK); conditions: 5 ng/ml huTGF-b1, 24 hours
# Procedure: Normal rat kidney cells (NRK) were cultured in DMEM-21 (high glucose)/10% FCS at 37° C., 5% CO2. Cells were serum starved for 24 hr before treated with 5 ng/ml huTGF-b1 (R&D System) or co-treatment with 1 μM Compound No. 81 or 0.1 μM Compound No. 74 for 24 hours.
# Gene expression profiles were determined from cDNA microarrays containing approximately 9000 elements derived from clones isolated from normalized cDNA libraries or purchased from ResGen (Invitrogen Life Technologies, Carlsbad, Calif.). DNA for spotting was generated by PCR amplification using 5′amino-modified primers (BD Biosciences Clontech, Palo Alto, Calif.) derived from flanking vector sequences. […]
# as §2, §3
substance,measurement,setting,value
"TGF-β1: huTGF-b1 (R&D System), transforming growth factor-beta 1, used to induce receptor down-regulation","expression of seven members of the steroid nuclear receptor family, including glucocorticoid receptor and retinoid receptor C alpha",[1],down-regulates
same,down-regulation of glucocorticoid receptor expression at the transcriptional level,[2],2 fold
same,down-regulation of glucocorticoid receptor expression at the transcriptional level,[3],2 fold
